Laboratory results: patent US4146637A, “Anti-inflammatory N-acyl substituted benzamides” (priority 1976, dated 1979)
Where a name gives a salt, the structure may show the parent alone. Read-outs that look alike come from different tables or passages of the source.

Key:
[1] = tested on: β-adrenergic; assay: β-adrenergic blockage, in vitro; design: unit not given here; details: in vit., rat, dose 10
Description: (§1) As the results of Table 3 show, the compounds of this invention have both lower toxicity and different side effects than metoclopramide. Compounds of this invention have interesting pharmacological characteristics. The pharmaco dynamics of the compounds prepared in Examples 9, 43 and 48 in the form of their hydrochlorides, as well as the reference compound, metoclopramide dihydrochloride, were determined by pharmacological screening for 54 group activities. The activities which were found were confirmed by secondary tests. Additionally, the ED100 of known group-specific comparative compounds is given.

[2] = tested on: Adjuvans arthritis; assay: Adjuvans arthritis stoppage; format: in vivo, rat; details: for anti-inflammatory activity in the adjuvenous arthritis test: result in words; for Adjuvans arthritis stoppage, percent inhibition of the secondary lesions on the 14th day (first value) / Adjuvans arthritis stoppage, percent inhibition of the secondary lesions on the 14th day (second value): rat, 100 mg/kg p.o.; for Adjuvans arthritis stoppage, percent inhibition of the secondary lesions on the 14th day (first value): first of two values; for Adjuvans arthritis stoppage, percent inhibition of the secondary lesions on the 14th day (second value): second of two values
Description: as §1

[3] = acute carrageneen experiment; format: in vivo; details: result in words
[4] = antimicrobial characteristics (summary statement); details: result in words
[5] = antiallergic characteristics (summary statement); details: result in words
[6] = Cataleptic test; format: in vivo, mouse; details: po; for minimal effective dose at 100 mg/kg: mouse, p.o., read-out: Cataleptic, MED (average minimal effective dose)
Description: as §1

[7] = Muscle relaxant test; format: in vivo, mouse; details: po; for minimal effective dose at 300 mg/kg: mouse, p.o., read-out: Muscle relaxant, MED (average minimal effective dose)
Description: as §1

[8] = Antiasthmatic test; format: in vivo; details: po, rat, p.o.; for minimal effective dose: read-out: Antiasthmatic, MED (average minimal effective dose)
Description: as §1

[9] = Antithrombotic test; format: in vivo, rat; details: po; for minimal effective dose at 100 mg/kg: rat, p.o., read-out: Antithrombotic, MED (average minimal effective dose)
Description: as §1

[10] = Antiedematous test; format: in vivo; details: po, rat, p.o.; for minimal effective dose: read-out: Antiedematous, MED (average minimal effective dose)
Description: as §1

[11] = Systematic anaphylactic test; format: in vivo; details: po, mouse, p.o.
Description: as §1

[12] = tested on: E. Coli; assay: antibacterial test E. Coli, in vitro; format: cell-based; details: in vit.
Description: as §1

[13] = Amphetamine stereotype; format: in vivo, mouse; details: po
Description: as §1

[14] = Antiaggressive test; format: in vivo, mouse
Description: as §1

[15] = Anti-electroshock test; format: in vivo; details: po, mouse, p.o.
Description: as §1

[16] = Antiarrhytmic test; format: in vivo; details: mouse, i.p.
Description: as §1

[17] = rat, cited from earlier work
[18] = i.p., mouse; cited from earlier work

For `CCN(CC)CCNC(=O)c1cc(Cl)c(NC(=O)C(C)(C)Oc2ccc(Cl)cc2)cc1OC` [Example 9], the “β-adrenergic blockage, MEC (average effective concentration)” value [1] was 10.
With `CCN(CC)CCNC(=O)c1cc(Cl)c(NC(=O)COc2ccc(Cl)cc2)cc1OC` [Example 40] the “anti-inflammatory activity in the adjuvenous arthritis test” value [2] was “very strong anti-inflammatory activity”, the “anti-inflammatory activity in the acute carrageneen experiment” value [3] was “very strong anti-inflammatory activity” and the antimicrobial characteristics [4] was “weak antimicrobial”. For the same compound, the antiallergic characteristics [5] was “antiallergic characteristics”.
With `CCN(CC)CCNC(=O)c1cc(Cl)c(NC(=O)COc2ccc(Cl)cc2)cc1OC` [Example 43] the minimal effective dose at 100 mg/kg [6] was 100 mg/kg, the minimal effective dose at 300 mg/kg [7] was 300 mg/kg and the “Adjuvans arthritis stoppage, percent inhibition of the secondary lesions on the 14th day (first value)” value [2] was 43%. The “Adjuvans arthritis stoppage, percent inhibition of the secondary lesions on the 14th day (second value)” value [2] was 46%, the minimal effective dose [8] was 100 mg/kg and the minimal effective dose at 100 mg/kg [9] was 50 mg/kg. For the same compound, the minimal effective dose [10] was 100 mg/kg and the minimal effective dose ([11]; read-out: Systematic anaphylactic, MED (average minimal effective dose)) was 100 mg/kg.
For `CCN(CC)CCNC(=O)c1cc(Cl)c(NC(=O)C(C)Oc2ccc(Cl)cc2)cc1OC` (stereo not drawn) [Example 45], the “anti-inflammatory activity in the adjuvenous arthritis test” value [2] was “very strong anti-inflammatory activity”, the “anti-inflammatory activity in the acute carrageneen experiment” value [3] was “very strong anti-inflammatory activity” and the antimicrobial characteristics [4] was “weak antimicrobial”. For the same compound, the antiallergic characteristics [5] was “antiallergic characteristics”.
With `CCN(CC)CCNC(=O)c1cc(Cl)c(NC(=O)C(C)Oc2ccc(Cl)cc2)cc1OC` (stereo not drawn) [Example 48] the “Adjuvans arthritis stoppage, percent inhibition of the secondary lesions on the 14th day (first value)” value [2] was 45%, the “Adjuvans arthritis stoppage, percent inhibition of the secondary lesions on the 14th day (second value)” value [2] was 33% and the minimal effective dose [8] was 100 mg/kg. It also gave a minimal effective dose at 100 mg/kg [9] of 100 mg/kg.
Work on `CC(=O)Oc1ccccc1C(=O)O` [acetylsalicylic acid] yielded an ED100 ([9]; Rattus norvegicus, read-out: Antithrombotic, ED100 of reference compound) of 100 mg/kg.
With `CC1(C)S[C@@H]2[C@H](NC(=O)[C@H](N)c3ccccc3)C(=O)N2[C@H]1C(=O)O` [ampicillin] the “E. Coli, ED100 of reference compound” value [12] was 0.5 mg/kg.
For `CN(C)CCCN1c2ccccc2Sc2ccc(Cl)cc21` [chlorpromazine], the ED100 ([13]; Mus musculus, read-out: Amphetamine stereotype, ED100 of reference compound) was 5 mg/kg and the ED100 ([14]; Mus musculus, po, read-out: Antiaggressive, ED100 of reference compound) was 5 mg/kg.
`O=C(O)c1cc(=O)c2c(OCC(O)COc3cccc4oc(C(=O)O)cc(=O)c34)cccc2o1` [chromoglycine-sodium] showed an ED100 ([8]; read-out: Antiasthmatic, ED100 of reference compound) of 60 mg/kg.
Compound `O=C1NC(=O)C(c2ccccc2)(c2ccccc2)N1` [diphenylhydomtoin] has an ED100 ([15]; read-out: Anti-electroshock, ED100 of reference compound) of 10 mg/kg.
With `CCN(CC)CCNC(=O)c1cc(Cl)c(N)cc1OC` [metoclopramide dihydrochloride] the minimal effective dose at 25 mg/kg ([13]; mouse, p.o., dose 25 mg/kg, read-out: Amphetamine stereotype, MED (average minimal effective dose)) was 25 mg/kg, the minimal effective dose at 100 mg/kg [6] was 100 mg/kg and the minimal effective dose at 300 mg/kg [7] was 100 mg/kg. For the same compound, the minimal effective dose [10] was 50 mg/kg, the minimal effective dose ([16]; ip, read-out: Antiarrhytmic, MED (average minimal effective dose)) was 100 mg/kg and the Antiaggressive ([14]; mouse, p.o., dose 50 mg/kg, MED not given) was 50 mg/kg. For the same compound, the minimal effective dose ([15]; read-out: Anti-electroshock, MED (average minimal effective dose)) was 100 mg/kg.
For `CCN(CC)CCNC(=O)c1cc(Cl)c(N)cc1OC` [metoclopramide], the LD50 ([17]; i.p.) is given as 180 mg/kg, the LD50 ([17]; oral) is given as 235 mg/kg and the LD50 [18] is given as 242 mg/kg.
`CCC1(c2ccccc2)C(=O)NC(=O)NC1=O` [phenobarbital] gave an ED100 ([6]; Mus musculus, read-out: Cataleptic, ED100 of reference compound) of 100 mg/kg and an ED100 ([7]; Mus musculus, read-out: Muscle relaxant, ED100 of reference compound) of 100 mg/kg.
Compound `CCCCC1C(=O)N(c2ccccc2)N(c2ccccc2)C1=O` [phenybutazone] has an ED100 ([10]; read-out: Antiedematous, ED100 of reference compound) of 50 mg/kg.
For `CN(C)CCOc1ccccc1Cc1ccccc1` [phenyltoloxamine], the ED100 ([11]; read-out: Systematic anaphylactic, ED100 of reference compound) was 50 mg/kg.
In the case of guanidine, the “Antiarrhytmic, ED100 of reference compound” value [16] is reported as 100 mg/kg.
